We go through three molecules from patent US6562789B2, “Histidine derivatives, preparation process, and their use as free antiradical agents” (L'Oreal S.A., priority 1996, dated 2003).

Structures are written as SMILES.

The nature of data set [1]: anti-singlet-oxygen activity: deactivation of singlet oxygen, luminescence at 1270 nm, Stern-Volmer type analysis. Format: physicochemical. Conditions: for (kr + kq), sum of the rate constants for the chemical reaction and for the physical inhibition of singlet oxygen: singlet oxygen generated by irradiating Ru(bipy)3Cl at 437 nm in deuterated methanol, luminescence at 1270 nm. The text has this: The anti-singlet-oxygen activity of the compound of Example 1 was compared with that of N-octanoyl-β-alanyl-L-histidine (referred to as compound A) of the prior art, according to the following principle, which is also described in Pure & Appl. Chem., vol. 62, No. 8, 1467-1476 (1990).
In all the experiments, singlet oxygen was generated by irradiating at 437 nm Ru(bipy)3Cl (tris(2,2′-bipyridyl)ruthenium chloride hexahydrate) dissolved in deuterated methanol.
The sum of the physical inhibition constants (kq) and chemical reaction constants (kr) of singlet oxygen with the test compounds was determined.
The results for the deactivation of singlet oxygen can be analysed by measuring the luminescence (infrared emission) of singlet oxygen at 1270 nm, and by monitoring the kinetics of disappearance of oxygen.
The exploitation of the results is based on the Stern-Volmer type analysis principle: the signal obtained is measured in the absence (So) and in the presence (S) of the test compound, at various concentrations in the solution. The ratio So/S makes it possible to determine the value of (kr+kq) according to the following relationship:
[P] denotes the concentration of test compound in the solution, φo denotes the quantic yield of the emission in the absence of compound, φ denotes the quantic yield of the emission in the presence of compound, τo denotes the lifetime of singlet oxygen in deuterated methanol (270 μs), kr+kq denotes the sum of the rate constants for the chemical reaction and for the physical inhibition of singlet oxygen.

Usually melting point stands for the temperature of the solid-liquid transition.

The molecule `CCCCCCCCOC(=O)NCCC(=O)N[C@@H](Cc1c[nH]cn1)C(=O)O` [Example 1, N-octyloxycarbonyl-β-alanyl-L-histidine] yielded a melting point of 188 to 190 °C. In data set [1] (comparison of (kr+kq) in deuterated methanol), the “anti-singlet-oxygen activity compared with compound A of the prior art” value is on record as “significantly higher anti-singlet-oxygen activity”. For the same molecule, the “(kr + kq), sum of the rate constants for the chemical reaction and for the physical inhibition of singlet oxygen” value in data set [1] is given as 8.8 × 10^6 ± 0.3 1.mol^−1.s^−1.
In turn, `CCCCCCCCCCCCOC(=O)NCCC(=O)N[C@@H](Cc1c[nH]cn1)C(=O)O` [Example 2, N-dodecyloxycarbonyl-β-alanyl-L-histidine] came in with a melting point of 168 to 172 °C.
Consider `CCCCCCCC(=O)NCCC(=O)N[C@@H](Cc1c[nH]cn1)C(=O)O` [Compound A, N-octanoyl-β-alanyl-L-histidine, reference compound], for which the “(kr + kq), sum of the rate constants for the chemical reaction and for the physical inhibition of singlet oxygen” value in data set [1] is reported as 7.4 × 10^5 ± 0.4 1.mol^−1.s^−1.
